Measured values reported in ChEMBL document CHEMBL1201862, “PubChem BioAssay data set” (2004).
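Protocol summary: plate cells (96-well), add compound at 5 concentrations, incubate 48 h, interpolate endpoints linearly. The concentration for 50% growth inhibition is given as GI50.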 Active and inactive are the calls of the source. No stated cut-off is given here; in the data, active = GI50 up to about 1.1 µM and inactive = higher. *1 amine or outer side, *2 acyl side, *3 side chain or, on linkers, in order; H or OH if unused. Where a SMILES comes first, the peptide text is derived from it. Bridges are numbered along the chain shown (N, C = ends). [ ]: non-standard residue; d: D form. ξ: configuration not given here. X10 = CCC(C)C(N[*:1])C(O)CC(=O)O[C@H](C(=O)C(C)C(=O)[*:2])C(C)C; NMeY = CN[C@@H](Cc1ccc(O)cc1)C(=O)O; ξNMeL = CNC(CC(C)C)C(=O)O; ξT = CC(O)C(N)C(=O)O

How the values were obtained:
Experiment in all cases: DTP human tumour cell line panel, 48 h
HCC 2998 = test system: HCC 2998
HCT-116 = test system: HCT-116
LOX IMVI = test system: LOX IMVI
MCF7 = test system: MCF7
MDA-MB-435 = test system: MDA-MB-435
MOLT-4 = test system: MOLT-4
NCI-H460 = test system: NCI-H460
OVCAR-3 = test system: OVCAR-3
OVCAR-4 = test system: OVCAR-4
PC-3 = test system: PC-3
RPMI-8226 = test system: RPMI-8226
RXF 393 = test system: RXF 393
SF-295 = test system: SF-295
SF-539 = test system: SF-539
SN12C = test system: SN12C
SR = test system: SR
SW-620 = test system: SW-620
TK-10 = test system: TK-10
U-251 = test system: U-251
UACC-62 = test system: UACC-62

| SMILES | GI50 (HCC 2998) | GI50 (HCT-116) | GI50 (LOX IMVI) | GI50 (MCF7) | GI50 (MDA-MB-435) | GI50 (MOLT-4) | GI50 (NCI-H460) | GI50 (OVCAR-3) | GI50 (OVCAR-4) | GI50 (PC-3) | GI50 (RPMI-8226) | GI50 (RXF 393) | GI50 (SF-295) | GI50 (SF-539) | GI50 (SN12C) | GI50 (SR) | GI50 (SW-620) | GI50 (TK-10) | GI50 (U-251) | GI50 (UACC-62) |
| --- | --- | --- | --- | --- | --- | --- | --- | --- | --- | --- | --- | --- | --- | --- | --- | --- | --- | --- | --- | --- |
| CCOC(=O)Oc1ccc(C(CNC(C)C)OC(=O)OCC)cc1OC(=O)OCC (stereo not given) | > 100 µM (inactive) | > 100 µM (inactive) | > 100 µM (inactive) | > 100 µM (inactive) | > 100 µM (inactive) | 96.8 µM (inactive) | > 100 µM (inactive) | > 100 µM (inactive) | 65.5 µM (inactive) | > 100 µM (inactive) | > 100 µM (inactive) | 11.5 µM (inactive) | > 100 µM (inactive) | > 100 µM (inactive) | > 100 µM (inactive) | > 100 µM (inactive) | > 100 µM (inactive) | > 100 µM (inactive) | > 100 µM (inactive) | > 100 µM (inactive) |
| CCC(C)C1NC(=O)C(NC(=O)C(CC(C)C)N(C)C(=O)[C@@H]2CCCN2)C(C)OC(=O)[C@H](Cc2ccc(OC)cc2)N(C)C(=O)[C@@H]2CCCN2C(=O)[C@H](CC(C)C)NC(=O)C(C)C(=O)[C@H](C(C)C)OC(=O)CC1O (stereo not given in full) (H-P[ξNMeL][ξT][X10]LP[NMeY](Me); ester 3-C) | 0.000438 µM (active) | < 0.0001 µM (active) | < 0.0001 µM (active) | < 0.0001 µM (active) | 0.00047 µM (active) | 0.000244 µM (active) | 0.000249 µM (active) | 0.00136 µM (active) | 0.000139 µM (active) | 0.00106 µM (active) | 0.00116 µM (active) | < 0.01 µM (active) | 0.00144 µM (active) | 0.000322 µM (active) | 0.000411 µM (active) | 0.000317 µM (active) | 0.000555 µM (active) | 0.00355 µM (active) | < 0.0001 µM (active) | < 0.0001 µM (active) |
| NC(=O)c1cc(N2CC2)c([N+](=O)[O-])cc1[N+](=O)[O-] [TRETAZICAR] | > 100 µM (inactive) | > 100 µM (inactive) | > 100 µM (inactive) | > 63.2 µM (inactive) | > 200 µM (inactive) | > 63.2 µM (inactive) | 13 µM (inactive) | > 100 µM (inactive) | > 100 µM (inactive) | > 200 µM (inactive) | > 100 µM (inactive) | > 100 µM (inactive) | > 100 µM (inactive) | > 100 µM (inactive) | > 100 µM (inactive) | > 200 µM (inactive) | > 100 µM (inactive) | > 200 µM (inactive) | > 100 µM (inactive) | > 100 µM (inactive) |
